Target: T1, hCRTH2 (Homo sapiens, UniProt Q9Y5Y4)
T1 construct: expressed in transfected cells; host or cells: HEK (human embryonic kidney) cells expressing hCRTH2; membrane preparation
T1 sequence (Q9Y5Y4 1-395): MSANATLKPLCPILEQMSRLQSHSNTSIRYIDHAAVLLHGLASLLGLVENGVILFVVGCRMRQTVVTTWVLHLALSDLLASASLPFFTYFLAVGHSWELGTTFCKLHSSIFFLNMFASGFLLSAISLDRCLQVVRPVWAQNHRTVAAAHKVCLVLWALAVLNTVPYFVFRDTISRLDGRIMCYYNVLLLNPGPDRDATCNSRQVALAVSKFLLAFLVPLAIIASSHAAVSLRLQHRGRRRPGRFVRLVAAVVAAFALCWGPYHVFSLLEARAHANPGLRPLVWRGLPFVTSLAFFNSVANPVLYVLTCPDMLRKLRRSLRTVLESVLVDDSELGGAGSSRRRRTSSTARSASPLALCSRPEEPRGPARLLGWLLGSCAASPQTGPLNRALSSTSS
Assay: Radioligand binding assay ([3H]PGD2 competition, HEK-hCRTH2 membranes)
Details: [3H]PGD2 competition, Table B
In short: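 HEK-hCRTH2 membranes, 8-20 μg; [3H]PGD2 3.0 nM; 50 mM Tris-HCl pH 7.4/1 mM EDTA/2 mM MnCl2; DMSO 1%; 60 min RT; NSB 10 μM PGD2; filtration, scintillation counting.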

Ki [nM]	Compound
2.1 to 20	CC(CCCc1nc2cc(C(=O)N[C@@H]3CCCc4cc(Cl)ccc43)ccc2nc1-c1ccccc1)C(=O)O (stereo partly drawn) [compound 458, 5-(7-(((R)-6-chloro-1,2,3,4-tetrahydronaphthalen-1-yl)carbamoyl)-3-phenylquinoxalin-2-yl)-2-methylpentanoic acid]
2.1 to 20	CC(CCCc1nc2cc(C(=O)N[C@@H]3CCCc4cc(F)ccc43)ccc2nc1-c1ccccc1)C(=O)O (stereo partly drawn) [compound 459, 5-(7-(((R)-6-fluoro-1,2,3,4-tetrahydronaphthalen-1-yl)carbamoyl)-3-phenylquinoxalin-2-yl)-2-methylpentanoic acid]
2.1 to 20	CC(CCCc1nc2cc(C(=O)N[C@H](C)c3ccc(Cl)cc3)ccc2nc1-c1ccccc1)C(=O)O (stereo partly drawn) [compound 460, 5-(7-(((R)-1-(4-chlorophenyl)ethyl)carbamoyl)-3-3-phenylquinoxalin-2-yl)-2-methylpentanoic acid]
2.1 to 20	CC(CCCc1nc2cc(C(=O)N[C@H](C)c3ccc(F)cc3)ccc2nc1-c1ccccc1)C(=O)O (stereo partly drawn) [compound 461, 5-(7-(((R)-1-(4-fluorophenyl)ethyl)carbamoyl)-3-phenylquinoxalin-2-yl)-2-methylpentanoic acid]
2.1 to 20	CC(CCCc1nc2cc(C(=O)N[C@@H]3C[C@H]3c3ccccc3)ccc2nc1-c1ccccc1)C(=O)O (stereo partly drawn) [compound 463, 2-methyl-5-(3-phenyl-7-(((1R,2S)-2-phenylcyclopropyl)carbamoyl)quinoxalin-2-yl) pentanoic acid]
20.1 to 200	C[C@@H](NC(=O)c1ccc2nc(-c3ccccc3)c(CCCC(F)(F)C(=O)O)nc2c1)c1ccc(Cl)cc1 [compound 464, (R)-5-(7-((1-(4-chlorophenyl)ethyl)carbamoyl)-3-phenylquinoxalin-2-yl)-2,2-difluoropentanoic acid]
201 to 700	O=C(N[C@H](c1ccc(F)cc1)C(F)(F)F)c1ccc2nc(-c3ccccc3)c(CCCC(F)(F)C(=O)O)nc2c1 [compound 469, (R)-2,2-difluoro-5-(3-phenyl-7-((2,2,2-trifluoro-1-(4-fluorophenyl)ethyl)carbamoyl)quinoxalin-2-yl)pentanoic acid]
2.1 to 20	C[C@@H](NC(=O)c1ccc2nc(-c3ccccc3)c(CCCCC(=O)O)nc2c1)c1ccc(F)cn1 [compound 473, (R)-5-(7-((1-(5-fluoropyridin-2-yl)ethyl)carbamoyl)-3-phenylquinoxalin-2-yl)pentanoic acid]
2.1 to 20	C[C@H](NC(=O)c1ccc2nc(-c3ccccc3)c(CCCCC(=O)O)nc2c1)c1ccc(F)cn1 [compound 474, (S)-5-(7-((1-(5-fluoropyridin-2-yl)ethyl)carbamoyl)-3-phenylquinoxalin-2-yl)pentanoic acid]
20.1 to 200	C[C@H](CCCc1nc2cc(C(=O)N[C@H](C)c3ccc(F)cc3)ccc2nc1-c1ccc(F)cc1)C(=O)O [compound 479]
20.1 to 200	C[C@H](CCCc1nc2cc(C(=O)N[C@@H](C)c3ccc(F)cc3)ccc2nc1-c1ccc(F)cc1)C(=O)O [compound 481, (R)-5-(3-(4-fluorophenyl)-7-(((S)-1-(4-fluorophenyl)ethyl)carbamoyl)quinoxalin-2-yl)-2-methylpentanoic acid]
2.1 to 20	C[C@@H](CCCc1nc2cc(C(=O)N[C@H]3CCCc4ccccc43)ccc2nc1-c1ccc(F)cc1)C(=O)O [compound 483, (S)-5-(3-(4-fluorophenyl)-7-(((S)-1,2,3,4-tetrahydronaphthalen-1-yl)carbamoyl)quinoxalin-2-yl)-2-methylpentanoic acid]
2.1 to 20	C[C@@H](CCCc1nc2cc(C(=O)N[C@H](C)c3ccc(F)cc3)ccc2nc1-c1ccc(F)cc1)C(=O)O [compound 484, (S)-5-(3-(4-fluorophenyl)-7-(((R)-1-(4-fluorophenyl)ethyl)carbamoyl)quinoxalin-2-yl)-2-methylpentanoic acid]
2.1 to 20	C[C@H](NC(=O)c1ccc2nc(-c3ccc(F)cc3)c(CCC[C@H](C)C(=O)O)nc2c1)c1ccc(F)cc1 [compound 485, (S)-5-(3-(4-fluorophenyl)-7-(((S)-1-(4-fluorophenyl)ethyl)carbamoyl)quinoxalin-2-yl)-2-methylpentanoic acid]

Further lines, the compound ahead of its results:

Compound	Ki [nM]
CC(CCCc1nc2cc(C(=O)N[C@@H]3CCc4cc(F)ccc43)ccc2nc1-c1ccc(F)cc1)C(=O)O (stereo partly drawn) [compound 457, 5-(7-(((R)-5-fluoro-2,3-dihydro-1H-inden-1-yl)carbamoyl)-3-(4-fluorophenyl)quinoxalin-2-yl)-2-methylpentanoic acid]	0.1 to 2
CC(CCCc1nc2cc(C(=O)N3CCN(c4ccccc4)CC3)ccc2nc1-c1ccccc1)C(=O)O (stereo not drawn) [compound 462, 2-methyl-5-(3-phenyl-7-(4-phenylpiperazine-1-carbonyl)quinoxalin-2-yl)pentanoic acid]	2.1 to 20
O=C(N[C@@H]1CCCc2cc(F)ccc21)c1ccc2nc(-c3ccc(F)cc3)c(CCCC(F)(F)C(=O)O)nc2c1 [compound 465, (R)-2,2-difluoro-5-(7-((6-fluoro-1,2,3,4-tetrabydronaphthalen-1-yl)carbamoyl)-3-(4-fluorophenyl)quinoxalin-2-yl)pentanoic acid]	2.1 to 20
O=C(N[C@@H]1CCCc2ccccc21)c1ccc2nc(-c3ccccc3)c(CCCC(F)(F)C(=O)O)nc2c1 [compound 466, (R)-2,2-difluoro-5-(3-phenyl-7-((1,2,3,4-tetahydronaphthalen-1-yl)carbamoyl)quinoxalin-2-yl)pentanoic acid]	2.1 to 20
O=C(N[C@@H]1CCCc2cc(Cl)ccc21)c1ccc2nc(-c3ccccc3)c(CCCC(F)(F)C(=O)O)nc2c1 [compound 467, (R)-5-(7-((6-chloro-1,2,3,4-tetrahydronaphthalen-1-yl)carbamoyl)-3-phenylquinoxalin-2-yl)-2,2-difluoropentanoic acid]	2.1 to 20
O=C(N[C@@H]1CCc2cc(F)ccc21)c1ccc2nc(-c3ccccc3)c(CCCC(F)(F)C(=O)O)nc2c1 [compound 468, (R)-2,2-difluoro-5-(7-((5-fluoro-2,3-dihydro-1H-inden-1-yl)carbamoyl)-3-phenylquinoxalin-2-yl)pentanoic acid]	2.1 to 20
O=C(c1ccc2nc(-c3ccccc3)c(CCCC(F)(F)C(=O)O)nc2c1)N1CCN(c2ccccc2)CC1 [compound 470, 2,2-difluoro-5-(3-phenyl-7-(4-phenylpiperazine-1-carbonyl)quinoxalin-2-yl)pentanoic acid]	20.1 to 200
C[C@@H](NC(=O)c1ccc2nc(-c3ccc(F)cc3)c(CCCCC(=O)O)nc2c1)c1ccc(F)cn1 [compound 471, (R)-5-(3-(4-fluorophenyl)-7-((1-(5-fluoropyridin-2-yl)ethyl)carbamoyl)quinoxalin-2-yl)pentanoic acid]	2.1 to 20
C[C@H](NC(=O)c1ccc2nc(-c3ccc(F)cc3)c(CCCCC(=O)O)nc2c1)c1ccc(F)cn1 [compound 472, (S)-5-(3-(4-fluorophenyl)-7-((1-(5-fluoropyridin-2-yl)ethyl)carbamoyl)quinoxalin-2-yl)pentanoic acid]	20.1 to 200
O=C(N[C@@H]1CCCc2cc(Cl)ccc21)c1ccc2nc(-c3ccc(F)cc3)c(CCCC(F)(F)C(=O)O)nc2c1 [compound 475, (R)-5-(7-((6-chloro-1,2,3,4-tetrahydronaphthalen-1-yl)carbamoyl)-3-(4-fluorophenyl)quinoxalin-2-yl)-2,2-difluoropentanoic acid]	2.1 to 20
O=C(N[C@@H]1CCc2cc(F)ccc21)c1ccc2nc(-c3ccc(F)cc3)c(CCCC(F)(F)C(=O)O)nc2c1 [compound 476, (R)-2,2-dilluoro-5-(7-((5-fluoro-2,3-dihydro-1H-inden-1-yl)carbamoyl)-3-(4-fluorophenyl)quinoxalin-2-yl)pentanoic acid]	20.1 to 200
C[C@H](CCCc1nc2cc(C(=O)N[C@@H]3CCCc4ccccc43)ccc2nc1-c1ccc(F)cc1)C(=O)O [compound 477, (R)-5-(3-(4-fluorophenyl)-7-(((R)-1,2,3,4-tetrahydronaphthalen-1-yl)carbamoyl)quinoxalin-2-yl)-2-methylpentanoic acid]	2.1 to 20
C[C@H](CCCc1nc2cc(C(=O)N[C@H]3CCCc4ccccc43)ccc2nc1-c1ccc(F)cc1)C(=O)O [compound 478, (R)-5-(3-(4-fluorophenyl)-7-(((S)-1,2,3,4-tetrahydronaphthalen-1-yl)carbamoyl)quinoxalin-2-yl)-2-methylpentanoic acid]	20.1 to 200
O=C(N[C@@H]1CCCc2cc(F)ccc21)c1ccc2nc(-c3ccccc3)c(CCCC(F)(F)C(=O)O)nc2c1 [compound 480, (R)-2,2-difluoro-5-(7-((6-fluoro-1,2,3,4-tetrahydronaphthalen-1-yl)carbamoyl)-3-phenylquinoxalin-2-yl)pentanoic acid]	2.1 to 20
C[C@@H](CCCc1nc2cc(C(=O)N[C@@H]3CCCc4ccccc43)ccc2nc1-c1ccc(F)cc1)C(=O)O [compound 482, (S)-5-(3-(4-fluorophenyl)-7-(((R)-1,2,3,4-tetrahydronaphthalen-1-yl)carbamoyl)quinoxalin-2-yl)-2-methylpentanoic acid]	2.1 to 20
O=C(N[C@@H]1CCCc2ccccc21)c1ccc2nc(-c3ccc(F)cc3)c(CCCC(F)(F)C(=O)O)nc2c1 [compound 486, (R)-2,2-difluoro-5-(3-(4-fluorophenyl)-7-((1,2,3,4-tetrahydronaphthalen-1-yl)carbamoyl)quinoxalin-2-yl)pentanoic acid]	2.1 to 20
